{
  "source": "paper PMC8776995",
  "about": "(Frontiers in Chemistry, 2022)",
  "key": {"[1]": {"target": "wild-type EGFR (Homo sapiens, UniProt P00533)", "sequence (P00533 25-1210)": "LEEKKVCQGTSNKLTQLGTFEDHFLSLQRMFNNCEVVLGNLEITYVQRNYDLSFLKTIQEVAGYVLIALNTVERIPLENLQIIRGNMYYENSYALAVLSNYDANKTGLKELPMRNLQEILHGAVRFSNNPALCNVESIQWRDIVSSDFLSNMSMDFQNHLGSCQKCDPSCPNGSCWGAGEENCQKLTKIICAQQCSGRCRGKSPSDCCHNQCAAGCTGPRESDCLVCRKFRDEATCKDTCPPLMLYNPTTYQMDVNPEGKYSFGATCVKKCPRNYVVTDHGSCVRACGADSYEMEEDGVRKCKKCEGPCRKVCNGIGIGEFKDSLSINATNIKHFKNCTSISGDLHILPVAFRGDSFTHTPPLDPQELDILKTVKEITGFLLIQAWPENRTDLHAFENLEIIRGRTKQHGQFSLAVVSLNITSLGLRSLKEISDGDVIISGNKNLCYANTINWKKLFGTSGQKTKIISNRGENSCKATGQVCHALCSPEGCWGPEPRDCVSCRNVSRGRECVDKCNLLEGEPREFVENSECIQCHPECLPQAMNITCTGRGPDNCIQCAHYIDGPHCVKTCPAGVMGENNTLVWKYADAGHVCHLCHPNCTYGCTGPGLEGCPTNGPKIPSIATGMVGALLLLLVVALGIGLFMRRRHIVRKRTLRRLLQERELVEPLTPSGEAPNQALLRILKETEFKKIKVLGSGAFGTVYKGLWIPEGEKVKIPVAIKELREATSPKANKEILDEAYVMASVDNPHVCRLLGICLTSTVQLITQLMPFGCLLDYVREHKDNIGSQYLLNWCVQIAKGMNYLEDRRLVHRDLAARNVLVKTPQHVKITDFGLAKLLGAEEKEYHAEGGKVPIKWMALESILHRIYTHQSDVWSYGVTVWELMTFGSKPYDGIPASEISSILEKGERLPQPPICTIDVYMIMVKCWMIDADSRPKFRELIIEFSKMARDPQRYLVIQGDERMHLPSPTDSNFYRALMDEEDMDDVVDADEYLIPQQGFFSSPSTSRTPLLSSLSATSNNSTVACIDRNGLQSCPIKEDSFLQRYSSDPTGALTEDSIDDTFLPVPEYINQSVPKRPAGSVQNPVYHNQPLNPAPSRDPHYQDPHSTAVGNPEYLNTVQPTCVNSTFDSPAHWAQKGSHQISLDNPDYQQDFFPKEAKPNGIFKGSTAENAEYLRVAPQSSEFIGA", "test": "EGFR kinase assay (ELISA)", "description": "The kinase enzyme of EGFR was purchased from Carna Bioscience (Kobe, Japan). A total of 10 ng/ml anti phosphotyrosine (PY713) antibody (abcam, Cambridge Science Park, United Kingdom) was precoated in 96-well ELISA plates. […] Then, a total of 3 μmol/L ATP was added and the reaction was continued for 2 h. […] After incubation, the wells were washed with PBS and then incubated with horseradish peroxidase (HRP)-conjugated streptavidin. The wells were visualized using 3,3′,5,5′-tetramethylbenzidine (TMB), and chromogenic reaction was ended with 2 mol/L H2SO4, the absorbance was read with a multimode plate reader (PerkinElmer, United States) at 450 nm."}, "[2]": {"tested_on": "H460 cells", "test": "CCK-8 antiproliferation assay, H460", "settings": "for Inhibitory efficacy: H460 cells"}, "[3]": {"tested_on": "A549 cells", "test": "CCK-8 antiproliferation assay, A549", "settings": "for Inhibitory efficacy: A549 cells"}, "[4]": {"tested_on": "PC-9 cells", "test": "CCK-8 antiproliferation assay, PC-9", "settings": "for Inhibitory efficacy: single repeats (Repeat 1-3), given as fraction"}, "[5]": {"tested_on": "H1975 cells", "test": "CCK-8 antiproliferation assay, H1975", "settings": "Homo sapiens, NCI-H1975, 48 h, read-out: IC50 (μM) H1975, CCK-8, 48 h, average ± SD of three independent experiments"}, "[6]": {"settings": "2uM, given as fraction, Repeat 1-3"}, "[7]": {"settings": "4uM, given as fraction, Repeat 1-3"}, "[8]": {"settings": "8uM, given as fraction, Repeat 1-3"}, "[9]": {"settings": "16uM, given as fraction, Repeat 1-3"}},
  "note": "Where “and” joins values, the source holds several entries; their conditions need not be identical. Equal entries are not always repeated.",
  "data": [
    {"smiles": "COCCOc1cc2ncnc(Nc3cccc(-c4cn(-c5ccccc5F)nn4)c3)c2cc1OCCOC", "note": "[e6, [6,7-Bis-(2-methoxy-ethoxy)-quinazolin-4-yl]-{3-[1-(2-fluoro-phenyl)-1H-[1,2,3]triazol-4-yl]-phenyl}-amine]", "values": [
      {"measurement": "melting point", "result": "83 to 86", "unit": "°C"},
      {"measurement": "inhibition at 0.0003 µM", "setting": "[1]; 0.3 nM, duplicate wells, calculated from A450", "result": 17.1, "unit": "%"},
      {"measurement": "Inhibition", "setting": "[1]; 0.3 nM, duplicate wells, calculated from A450, 0.0003 µM", "result": 10.6583},
      {"measurement": "inhibition at 0.003 µM", "setting": "[1]; 3 nM, duplicate wells, calculated from A450", "result": 21.5, "unit": "%"},
      {"measurement": "Inhibition", "setting": "[1]; 3 nM, duplicate wells, calculated from A450, 0.003 µM", "result": 11.5987},
      {"measurement": "inhibition at 0.03 µM", "setting": "[1]; 30 nM, duplicate wells, calculated from A450", "result": 26.3, "unit": "%"},
      {"measurement": "Inhibition", "setting": "[1]; 30 nM, duplicate wells, calculated from A450, 0.03 µM", "result": 21.0031},
      {"measurement": "inhibition at 0.3 µM", "setting": "[1]; 300 nM, duplicate wells, calculated from A450", "result": 29.7, "unit": "%"},
      {"measurement": "Inhibition", "setting": "[1]; 300 nM, duplicate wells, calculated from A450, 0.3 µM", "result": 21.3166},
      {"measurement": "inhibition at 3 µM", "setting": "[1]; 3000 nM, duplicate wells, calculated from A450", "result": 70.9, "unit": "%"},
      {"measurement": "Inhibition", "setting": "[1]; 3000 nM, duplicate wells, calculated from A450, 3 µM", "result": 70.8464},
      {"measurement": "inhibition at 30 µM", "setting": "[1]; 30000 nM, duplicate wells, calculated from A450", "result": 91.8, "unit": "%"},
      {"measurement": "Inhibition", "setting": "[1]; 30000 nM, duplicate wells, calculated from A450, 30 µM", "result": 93.4169},
      {"measurement": "IC50", "setting": "[1]; IC50 (μM) EGFR, ELISA, 3 μmol/L ATP", "result": 0.69, "unit": "µM"},
      {"measurement": "Inhibitory efficacy", "setting": "[2]; 1uM, given as fraction, Repeat 1-3", "result": "0.0882 and 0.09728"},
      {"measurement": "Inhibitory efficacy", "setting": "[2]; [6]", "result": "0.2957 and 0.2477"},
      {"measurement": "Inhibitory efficacy", "setting": "[2]; [7]", "result": "0.4663 and 0.4358"},
      {"measurement": "Inhibitory efficacy", "setting": "[2]; [8]", "result": "0.4163 and 0.4008"},
      {"measurement": "Inhibitory efficacy", "setting": "[2]; [9]", "result": "0.4274 and 0.4066"},
      {"measurement": "IC50", "setting": "[2]; Homo sapiens, NCI-H460, 48 h, read-out: IC50 (μM) H460, CCK-8, 48 h, average ± SD of three independent experiments", "result": "18.5 ± 2", "unit": "µM"},
      {"measurement": "inhibition at 1 µM", "setting": "[2]; Homo sapiens, NCI-H460, read-out: Inhibitory efficacy, H460 cells, 1uM, given as fraction, Repeat 1-3", "result": 14.7, "unit": "%"},
      {"measurement": "inhibition at 2 µM", "setting": "[2]; Homo sapiens, NCI-H460, read-out: Inhibitory efficacy, H460 cells, 2uM, given as fraction, Repeat 1-3", "result": 33.2, "unit": "%"},
      {"measurement": "inhibition at 4 µM", "setting": "[2]; Homo sapiens, NCI-H460, read-out: Inhibitory efficacy, H460 cells, 4uM, given as fraction, Repeat 1-3", "result": 39.8, "unit": "%"},
      {"measurement": "inhibition at 8 µM", "setting": "[2]; Homo sapiens, NCI-H460, read-out: Inhibitory efficacy, H460 cells, 8uM, given as fraction, Repeat 1-3", "result": 42.1, "unit": "%"},
      {"measurement": "inhibition at 16 µM", "setting": "[2]; Homo sapiens, NCI-H460, read-out: Inhibitory efficacy, H460 cells, 16uM, given as fraction, Repeat 1-3", "result": 44.7, "unit": "%"},
      {"measurement": "Inhibitory efficacy", "setting": "[3]; [6]", "result": "0.2224 and 0.3459"},
      {"measurement": "Inhibitory efficacy", "setting": "[3]; [7]", "result": "0.572 and 0.5248"},
      {"measurement": "Inhibitory efficacy", "setting": "[3]; [8]", "result": "0.6524 and 0.6253"},
      {"measurement": "Inhibitory efficacy", "setting": "[3]; [9]", "result": "0.6986 and 0.7076"},
      {"measurement": "IC50", "setting": "[3]; Homo sapiens, A549, 48 h, read-out: IC50 (μM) A549, CCK-8, 48 h, average ± SD of three independent experiments", "result": "4.88 ± 0.54", "unit": "µM"},
      {"measurement": "inhibition at 2 µM", "setting": "[3]; Homo sapiens, A549, read-out: Inhibitory efficacy, A549 cells, 2uM, given as fraction, Repeat 1-3", "result": 25.8, "unit": "%"},
      {"measurement": "inhibition at 4 µM", "setting": "[3]; Homo sapiens, A549, read-out: Inhibitory efficacy, A549 cells, 4uM, given as fraction, Repeat 1-3", "result": 45.7, "unit": "%"},
      {"measurement": "inhibition at 8 µM", "setting": "[3]; Homo sapiens, A549, read-out: Inhibitory efficacy, A549 cells, 8uM, given as fraction, Repeat 1-3", "result": 63.5, "unit": "%"},
      {"measurement": "inhibition at 16 µM", "setting": "[3]; Homo sapiens, A549, read-out: Inhibitory efficacy, A549 cells, 16uM, given as fraction, Repeat 1-3", "result": 69.8, "unit": "%"},
      {"measurement": "IC50", "setting": "[4]; Homo sapiens, PC-9, 48 h, read-out: IC50 (μM) PC-9", "result": "3.27 ± 0.14", "unit": "µM"},
      {"measurement": "inhibition at 2 µM", "setting": "[4]; Homo sapiens, PC-9, read-out: Inhibitory efficacy, PC-9, 2uM, single repeats (Repeat 1-3), given as fraction", "result": 37.3, "unit": "%"},
      {"measurement": "inhibition at 4 µM", "setting": "[4]; Homo sapiens, PC-9, read-out: Inhibitory efficacy, PC-9, 4uM, single repeats (Repeat 1-3), given as fraction", "result": 61.7, "unit": "%"},
      {"measurement": "inhibition at 8 µM", "setting": "[4]; Homo sapiens, PC-9, read-out: Inhibitory efficacy, PC-9, 8uM, single repeats (Repeat 1-3), given as fraction", "result": 77.6, "unit": "%"},
      {"measurement": "inhibition at 16 µM", "setting": "[4]; Homo sapiens, PC-9, read-out: Inhibitory efficacy, PC-9, 16uM, single repeats (Repeat 1-3), given as fraction", "result": 85, "unit": "%"},
      {"measurement": "Inhibitory efficacy", "setting": "[4]; PC-9, 2uM, 2 µM", "result": "0.401 and 0.3548"},
      {"measurement": "Inhibitory efficacy", "setting": "[4]; PC-9, 4uM, 4 µM", "result": "0.5712 and 0.6591"},
      {"measurement": "Inhibitory efficacy", "setting": "[4]; PC-9, 8uM, 8 µM", "result": "0.783 and 0.7626"},
      {"measurement": "Inhibitory efficacy", "setting": "[4]; PC-9, 16uM, 16 µM", "result": "0.8422 and 0.8588"},
      {"measurement": "IC50", "setting": "[5]", "result": "16.5 ± 3.53", "unit": "µM"}
    ]}
  ]
}
